{"source": "patent US20180362473A1", "about": "“BIOORTHOGONAL METHODS AND COMPOUNDS” (The University Court of the University of Edinburgh, priority 2013, published 2018)", "assay_type_in_all_cases": "cell-based", "key": {"[1]": {"tested_on": "colorectal HCT116 cells", "experiment": "PrestoBlue cell viability assay, 5 days treatment", "details": "for cytotoxic effect / effect on cell viability of prodrug alone: HCT116, without palladium, 5 days, doses up to 1,000 μM (FIG. 18A: 0.1-300 μM); for toxigenic effect of prodrug combined with Pd^0-resins (BOOM conversion): HCT116, prodrug 100 μM + Pd^0-resin 1 mg/mL", "description": "(§1) The toxicities of 5FU and its prodrugs were compared by performing dose-response studies with 5FU and Pro-5FU (0.01 μM to 1 mM). Doses of Pro-5FU and 5FU (0.01, 0.03, 0.1, 0.3, 1, 3, 10, 30 and 100 μM, for both cell lines, and additional doses of 300 μM and 1,000 μM for colorectal HCT116 cells) were incubated with cells for 5 days and cell viability measured to determine the corresponding EC values. Cell viability was analysed by fluoresce intensity nm; nm) after 45 min incubation with PrestoBlue™ Reagent (Life Technologies).\n(§2) The toxigenic effect as a result of in situ generation of 5FU in cell culture was determined by incubating colorectal HCT116 cells or pancreatic BXPc-3 cells in tissue culture media containing 0.1% (viv) DMSO and a) Pd^0-resin (1 mg/mL, negative control); b) prodrug (negative, control); or c) Pd^0-resin (1 mg prodrug (reaction assay). Cells incubated in 0.1% (v/v) DMSO in media was used as an untreated cell reference standard (100% viability). A PrestoBlue® cell viability assay as described above was carried out and fluorescent intensities compared to the untreated cell control. Prodrug concentrations were 100 μM for HCT116 cells, and 30 μM for BxPC-3 cells.\n(§3) HCT116 and BXPc-3 cells were plated in Dulbecco's Modified Eagle Media (DMEM) and Roswell Park Memorial Institute (RPMI) respectively, supplemented with serum (10% FBS) and L-glutamine (2 mM). Cells were seeded in a 96 wail plate format with a density of either 30.000 cells and incubated for 48 h at 37° C. and 5% CO2 before treatment. Each well was then replaced with fresh media containing: Pd^0-resins (1 mg/ml) (negative control); prodrug (0.01 μM to 1 mM) in DMSO (0.1% v/v) (negative control); 5FU (0.01 μM to 1 mM) in DMSO (0.1% v/v) (positive control); or a combination of Pd^0 resin+prodrug (0.01 μM to 1 mM in 0.1% v/v DMSO). Cells incubated in 0.1% (v/v) DMSO in media were used as untreated cell reference standard (i.e. 100% cell viability). Cells were incubated in the fresh media for 5 days. PrestoBlue cell viability reagent (Life Technologies) (10% v/v) was then added to each well and the plate incubated for 45 min, Fluorescence intensity values (detected using a PerkinElmer EnVision 2101 multilabel reader with excitation filter at 540 nm and emissions filter at 590 nm) were determined relative to the untreated cell control."}, "[2]": {"tested_on": "pancreatic BxPC-3 cells", "experiment": "PrestoBlue cell viability assay, 5 days treatment", "details": "for EC50: Homo sapiens, 120 h, PrestoBlue; for toxigenic effect of prodrug combined with Pd^0-resins (BOOM conversion): BxPC-3, prodrug 30 μM + Pd^0-resin 1 mg/mL", "description": "as §1, §2, §3"}, "[3]": {"tested_on": "HCT116 cells", "experiment": "Real-time confluence study (Incucyte live-cell imaging)", "details": "HCT116, 100 μM, 5 days (120 h)", "description": "FIGS. 9A and 9B show real-time cell confluence study data for Pro-5FU and 5FU (HCT116 cells in FIG. 9A and BXPc-3 cells in FIG. 9B) plotting cell proliferation (indicated by % phase object confluence) against time. Cell proliferation was monitored for 5 days (120 h) using the high-content live-cell imaging system Incucyte™ (Essen BioScience) placed in an incubator (5% CO2, 37° C.), Pro-5FU and 5FU were used at 100 μM and 10 μM for HCT116 and BXPc-3 cells, respectively.\n(§4) To study the phenotypic effect of the prodrug catalyst system compared to 5FU, cell proliferation was monitored for 5 days (120 h) using the high-content live-cell imaging system Incucyte™ Essen BioScience) placed in an incubator (5% CO2, 37° C.). Cell confluence analysis and supplementary movies 1 and 2 were carried out using the Incucyte software. Experiments (performed as described above for the dose response cell viability assay) were imaged by time-lapse contrast phase microscopy and cell growth represented as a function of total cell confluence."}, "[4]": {"tested_on": "BxPC-3 cells", "experiment": "Real-time confluence study (Incucyte live-cell imaging)", "details": "BxPC-3, 30 μM, 5 days (120 h)", "description": "FIGS. 9A and 9B show real-time cell confluence study data for Pro-5FU and 5FU (HCT116 cells in FIG. 9A and BXPc-3 cells in FIG. 9B) plotting cell proliferation (indicated by % phase object confluence) against time. […]\nas §4"}, "[5]": {"tested_on": "total p53 protein and phosphorylated p53 (Serine 15) in HCT116 cells", "experiment": "Zeptosens Reverse Phase Protein Microarray analysis", "details": "HCT116, 100 μM, 24 h exposure", "description": "Post-translational modifications of cancer relevant pathways (including p53) were quantified by antibody-based proteomics across time-series studies using Zeptosens Reverse Phase Protein Microarray analysis.\nCells were plated in their respective supplemented media in a 6 well plate at a density of 240,000 cells/mL and incubated for 46 h. Before adding to the cells, Fro-5FU (100 μM for HCT116) and Pd^0-resins (1 mg/mL) were incubated for 24h to overcome the time relapse required to convert Pro-5FU into 5FU. Cells were treated with the Pd^8 resin+Pro-5FU combination and the controls (as before: untreated cells; Pd^0; Pro-5FU; and 5FU) and incubated for 6 and 24 h. Afterwards, the cells were washed with PBS (2×3 mL) and lysed with Zeptosens CLB1 lysis buffer (90 μl). Samples were analyzed by Zeptosens RPPA using the following specific conditions. Tumor cell lysates were normalized to a uniform protein concentration with spotting buffer CSBL1 (Zeptosens-Bayer) prior to preparing a final 4-fold concentration series of; 0.2; 0.15; 0.1 and […]. […] A weighted linear fit through the 4-fold concentration series was used to calculate relative fluorescence intensity (RFI) value for each sample replicate. […] Abundance levels of total p53 protein and phosphorylated p53 (Serine 15) were plotted as RFI data calculated by the ZeptoView™ 3.1 software."}, "[6]": {"tested_on": "colorectal HCT116 cells", "experiment": "Test for competitive inhibition by prodrug (cell viability)", "details": "HCT116, 5FU 10 μM + Pro-5FU 0.1-1,000 μM, prodrug/drug ratio up to 100:1", "description": "(§5) Cells were incubated with 5FU (10 μM for HCT116 cells and 1 μM for BxPC-3 cells) in combination with increasing doses of Pro-5FU (0.1-1,000 μM), and cell viability determined."}, "[7]": {"tested_on": "pancreatic BxPC-3 cells", "experiment": "Test for competitive inhibition by prodrug (cell viability)", "details": "BxPC-3, 5FU 1 μM + Pro-5FU 0.1-1,000 μM, prodrug/drug ratio up to 100:1", "description": "as §5"}}, "note": "Where two headings read alike, the source gives them in different places.", "data": [{"smiles": "O=c1[nH]cc(F)c(=O)[nH]1", "note": "[Compound 5FU, 5-fluorouracil]", "values": [{"measurement": "EC50", "setting": "[1]; Homo sapiens, HCT-116, 120 h, HCT116, 5 days incubation, PrestoBlue, read-out: EC50 5FU", "result": 2000, "unit": "nM"}, {"measurement": "EC50", "setting": "[2]; BXPc-3, 5 days incubation, read-out: EC50 5FU", "result": 136, "unit": "nM"}, {"measurement": "EC50", "setting": "[2]; BxPC-3, 5 days incubation, read-out: EC50", "result": 136, "unit": "nM"}, {"measurement": "cell growth (confluence) vs time", "setting": "[3]", "result": "decreased rapidly after a few hours"}, {"measurement": "cell growth (confluence) vs time", "setting": "[4]", "result": "decreased rapidly after a few hours"}, {"measurement": "abundance of total and Ser15-phosphorylated p53", "setting": "[5]", "result": "overexpressed"}]}, {"smiles": "C#CCn1cc(F)c(=O)[nH]c1=O", "note": "[Pro-5FU]", "values": [{"measurement": "fold reduction in effect, EC50 (Pro-5FU)/EC50 (5FU)", "setting": "[1]; HCT116, prodrug without palladium", "result": "greater than 500 fold"}, {"measurement": "cytotoxic effect / effect on cell viability of prodrug alone", "setting": "[1]", "result": "no effect"}, {"measurement": "fold reduction in effect versus 5FU", "setting": "[2]; BxPC-3, prodrug without palladium", "result": "greater than 700 fold"}, {"measurement": "effect of prodrug on cytotoxicity of 5FU", "setting": "[6]", "result": "no antagonistic effect"}, {"measurement": "effect of prodrug on cytotoxicity of 5FU", "setting": "[7]", "result": "no antagonistic effect"}, {"measurement": "abundance of total and Ser15-phosphorylated p53", "setting": "[5]", "result": "no induction"}]}, {"smiles": "C=CCn1cc(F)c(=O)[nH]c1=O", "note": "[All-5FU]", "values": [{"measurement": "toxigenic effect of prodrug combined with Pd^0-resins (BOOM conversion)", "setting": "[1]", "result": "No appreciable cytotoxicity"}, {"measurement": "toxigenic effect of prodrug combined with Pd^0-resins (BOOM conversion)", "setting": "[2]", "result": "No appreciable cytotoxicity"}]}, {"smiles": "O=c1[nH]c(=O)n([C@H]2C[C@H](O)[C@@H](CO)O2)cc1F", "note": "[FUDR, floxuridine]", "values": [{"measurement": "times more potent than 5-FU", "setting": "[1]", "result": "around 50 times"}]}, {"smiles": "C#CCn1c(=O)c(F)cn([C@H]2CC(O)[C@@H](CO)O2)c1=O", "note": "(stereo partly shown) [Compound 11, 3-propergyl-floxuridine]", "values": [{"measurement": "times less cytotoxic effect on cell viability than floxuridine", "setting": "[1]; HCT116, dose range 0.003-30 μM, without palladium", "result": "over 1000 times"}]}, {"smiles": "C#CCn1c(=O)[nH]cc(F)c1=O", "note": "[Compound 6]", "values": [{"measurement": "cytotoxic effect / effect on cell viability of prodrug alone", "setting": "[1]", "result": "no effect"}]}, {"smiles": "O=c1[nH]c(=O)n(Cc2ccccc2)cc1F", "note": "[Bn-5FU]", "values": [{"measurement": "toxigenic effect of prodrug combined with Pd^0-resins (BOOM conversion)", "setting": "[1]", "result": "low levels of toxicity"}, {"measurement": "toxigenic effect of prodrug combined with Pd^0-resins (BOOM conversion)", "setting": "[2]", "result": "low levels of toxicity"}]}]}
